# Assay results published in patent US20130237487A1, “CRYSTALLINE AND NON-CRYSTALLINE FORMS OF SGLT2 INHIBITORS” (SCINOPHARM TAIWAN, LTD., priority 2011, published 2013).
# “Also recorded” adds a separate entry of the source.
# Columns and labels:
# [1] = Dynamic vapor sorption (DVS) analysis; conditions: for sorption/desorption behavior between cycles: DVS isotherm plots, two sorption/desorption cycles; for hygroscopicity (moisture sorption) / physical stability of the solid form as humidity is changed: DVS; for hygroscopicity (moisture sorption): relative humidity increased from 0% to 90%; for physical stability of the solid form as humidity is changed: up to 90% RH
# [2] = Hydration-state stability of Form CS3 under different humidity (DSC/TGA, Karl Fischer titration); type: physicochemical
# Text: Form CS3 has been further characterized using DSC/TGA and Karl Fischer titration. […] Dehydration, which is reversible, only occurs when the sample is exposed to a low humidity environment (e.g., less than about 10% RH). […] The DSC/TGA traces of crystalline complex Form CS3 of canagliflozin are in accordance with FIG. 17. The aforementioned physical stability characteristic of this embodiment makes the crystalline complex Form CS3 of canagliflozin a preferred solid form of canagliflozin of this invention.
# (FIG. 20) is essentially the same as the XRPD pattern acquired at 25° C. (FIG. 15). Thus, from the XRPD patterns acquired at 25° C. and 100° C., it can be reasonably concluded that although Form CS3 is a monohydrate under ambient conditions (such as in an analytical chemistry laboratory), it can also exist as an anhydrate at low humidity, such as less than about 10% RH, and at temperatures higher than ambient temperature.
# [3] = laboratory environmental conditions
Structure (SMILES),sorption/desorption behavior between cycles [1],hygroscopicity (moisture sorption) [1],physical stability of the solid form as humidity is changed [1],physical stability (hydration state) ([2]; highly humid conditions),"hygroscopicity [2, 3]","physical stability (hydration state) [2, 3]",relative humidity at which (reversible) dehydration occurs ([2]; low humidity environment)
"Cc1ccc([C@@H]2O[C@H](CO)[C@@H](O)[C@H](O)[C@H]2O)cc1Cc1ccc(-c2ccc(F)cc2)s1 [amorphous form of canagliflozin, (2S,3R,4R,5S,6R)-2-{3-[5-[4-fluoro-phenyl)-thiophen-2-ylmethyl]-4-methyl-phenyl}-6-hydroxymethyl-tetrahydro-pyran-3,4,5-triol]",second sorption/desorption cycle was different from the first cycle; also recorded: inconsistent between the two cycles,significantly hygroscopic,conversion or partial conversion from the amorphous state to a crystalline state; also recorded: undergoes physical change (from amorphous to crystalline),,,,
Cc1ccc([C@@H]2O[C@H](CO)[C@@H](O)[C@H](O)[C@H]2O)cc1Cc1ccc(-c2ccc(F)cc2)s1 [Form CS3],,,,remains as a monohydrate,non-hygroscopic,stable as a monohydrate,less than 10 % RH
Cc1ccc([C@@H]2O[C@H](CO)[C@@H](O)[C@H](O)[C@H]2O)cc1Cc1ccc(-c2ccc(F)cc2)s1.O=C(O)[C@@H]1CCCN1 [Form CS1],completely consistent between cycles,not hygroscopic,stable in the presence or absence of moisture,,,,
